Measured values as given in patent publication US20250367231A1, “MULTIFUNCTIONAL BIOADHESIVE DESIGNED WITH CHEMICAL FUNCTIONALITY INDUCED SUTURED BIOLOGICAL BUILDING BLOCKS” (The Regents of the University of California, priority 2022, published 2025).

Conditions: ambient conditions; for time to change in color (self-oxidation of catechol moieties): aqueous solution
Excerpt: Dopamine (Dopa), a naturally derived neurotransmitter molecule^[4], also resembles with the key moiety in mussel foot proteins (catechol)^[11] and has been intensely utilized to develop adhesive biomaterials with diverse clinical importance^[12]. In view of the biological relevance of multifunctional catecholic moieties, herein, Dopa skeleton was chemically modified with a nitro-group to modulate the electronic properties of the aromatic ring^[13] (FIG. 1a). To use the nitro incorporated dopamine (nDopa) moiety for designing functional biomaterials, it was further covalently conjugated with a methacrylate group through an amide linkage (FIG. 1a).

Compound	time to change in color (self-oxidation of catechol moieties)	time without self-oxidation
NCCc1ccc(O)c(O)c1 [Dopa, dopamine]	1 h	
C=C(C)C(=O)NCCc1cc(O)c(O)cc1[N+](=O)[O-] [nMAD, methacrylated nitro-dopamine]		> 7 days
C=C(C)C(=O)NCCc1ccc(O)c(O)c1 [MAD, methacrylated dopamine]	24 h	
